“And” between values parts separate entries of the source, which are not always exact repeats. Equal values may be shown once. “Also recorded” adds a separate entry of the source.
Key:
p53 level in H460 cells = experiment: p53 induction by immunoblotting (IB) in H460 cells; format: cell-based, human
[1] = tested on: p53 level in HCT116^+/+ cells; experiment: p53 induction by immunoblotting (IB) in HCT116^+/+ cells; format: cell-based, human
Experimental: (§1) EC90 values were calculated from the EC50 and Hill slope by a web-based calculator: http://www.graphpad.com/quickcalcs/Ecanything1.cfm.

[2] = tested on: p53 level in H460 and HCT116^+/+ cells; experiment: p53 induction by immunoblotting (IB), statement does not separate the cell lines; format: cell-based, human; conditions: 18 hrs, 0.5, 2, 10 µM
Excerpt: (A–B) Initial Inauhzin analogs were purchased and tested the activity on H460 and HCT116^+/+ by immunoblotting (IB). […]

HCT116^+/+ cells = experiment: 3-day WST-8 cell growth inhibition assay, HCT116^+/+; format: cell-based, human; conditions: for EC90 / EC50: Homo sapiens; for EC90: HCT-116, calculated from EC50 and Hill slope, read-out: EC90, cell growth inhibition, HCT116^+/+ p53 wild type; for EC50: HCT-116, 72 h WST-8, average of triplicates, highest concentration 50 µM, read-out: EC50, cell growth inhibition, HCT116^+/+ p53 wild type
Experimental: as §1

H460 cells [3] = experiment: 3-day WST-8 cell growth inhibition assay, H460; format: cell-based, human; conditions: for EC50: Homo sapiens, NCI-H460, 72 h WST-8, average of triplicates, highest concentration 50 µM, read-out: EC50, cell growth inhibition, H460 p53 wild type
H460 cells [4] = experiment: 3-day WST-8 cell growth inhibition assay, H460; format: cell-based, human; conditions: Homo sapiens, NCI-H460, calculated from EC50 and Hill slope (GraphPad web calculator); read-out: EC90, cell growth inhibition, H460 p53 wild type
Experimental: as §1

WI-38 cells = experiment: WST-8 cytotoxicity assay on normal fibroblasts WI-38; format: cell-based, human
Experimental: as §1

H1299 cells = experiment: 3-day WST-8 cell growth inhibition assay, H1299 (p53 null); format: cell-based, human
Experimental: as §1

HCT116^−/− cells [5] = experiment: 3-day WST-8 cell growth inhibition assay, HCT116^−/− (p53 null); format: cell-based, human
HCT116^−/− cells [6] = experiment: as above; format: cell-based; conditions: Homo sapiens, HCT-116, calculated from EC50 and Hill slope
Experimental: as §1

[7] = 2 µM, 18 hrs, IB normalized to GAPDH, compared to 2 µM INZ

SMILES | p53 induction in H460 cells (p53 level in H460 cells; [7]) | p53 induction in HCT116^+/+ cells [1, 7] | p53 induction / activation by synthetic analogs [2] | p53 induction / activation in H460 cells (p53 level in H460 cells; IB, 18 hrs, 0.5, 2, 10 µM) | p53 induction / activation in HCT116^+/+ cells ([1]; IB, 18 hrs, 0.5, 2, 10 µM, p53 acetylation (lys382), p53 level, MDM2) | EC90 (HCT116^+/+ cells) | EC50 (HCT116^+/+ cells) | EC50 (H460 cells [3]) | EC90 (H460 cells [4]) | EC50 (WI-38 cells; Homo sapiens, WI-38, highest concentration tested 50 µM, n.d. = not be able to be determined, read-out: EC50, normal cells WI-38 p53 wild type) | toxicity to normal human WI-38 cells (WI-38 cells; normal human fibroblasts, p53-containing) | EC90 (H1299 cells; Homo sapiens, NCI-H1299, calculated from EC50 and Hill slope) | EC50 (H1299 cells; Homo sapiens, NCI-H1299, 72 h WST-8, average of triplicates, highest concentration 100 µM) | effect on p53-null H1299 cells compared with p53-containing cells (H1299 cells; in vitro cytotoxicity) | EC50 on H1299 fold higher than on H460 cells (H1299 cells; p53-null H1299 vs p53-containing H460) | fold higher potency than INZ in growth inhibition of HCT116^+/+ cells (HCT116^+/+ cells; EC50 compared with INZ) | EC50 (HCT116^−/− cells [5]; Homo sapiens, HCT-116, 72 h WST-8, average of triplicates, highest concentration 100 µM) | effect on p53-null HCT116^−/− cells compared with p53-containing cells (HCT116^−/− cells [5]; in vitro cytotoxicity) | fold higher potency than INZ in growth inhibition of H460 cells (H460 cells [3]; EC50 compared with INZ) | EC90 (HCT116^−/− cells [6])
CCC(Sc1nnc2c(n1)[nH]c1ccccc12)C(=O)N1c2ccccc2Sc2ccc(OC)cc21 (stereo not shown) [Compound 7, 2-((5H-[1,2,4]triazino[5,6-b]indol-3-yl)thio)-1-(2-methoxy-10H-phenothiazin-10-yl)butan-1-one] | < 50% | < 50% | remained active in p53 induction |  |  |  |  |  |  |  |  |  |  |  |  |  |  |  |  | 
CCC(Sc1nnc2c3ccccc3n(C(=O)CCCCC3CC4NC(=O)NC4S3)c2n1)C(=O)N1c2ccccc2Sc2ccccc21 (stereo not shown) [Compound 20, 5-(5-oxo-5-(3-((1-oxo-1-(10H-phenothiazin-10-yl)butan-2-yl)thio)-5H-[1,2,4]triazino[5,6-b]indol-5-yl)pentyl)tetrahydro-1H-thieno[2,3-d]imidazole-2(5H)-one] |  |  |  | as effective as INZ | as effective as INZ | 18.3 µM | 2500 ± 600 nM | 2900 ± 200 nM | 7.5 µM |  |  |  |  |  |  |  |  |  |  | 
CCC(Sc1nnc2c3ccccc3n(CCO)c2n1)C(=O)N1c2ccccc2Cc2ccccc21 (stereo not shown) [Compound 37, 1-(acridin-10(9H)-yl)-2-((5-(2-hydroxyethyl)-5H-[1,2,4]triazino[5,6-b]indol-3-yl)thio)butan-1-one] |  |  | much better potency than INZ; also recorded: more potent in p53 activation than their parental compound INZ |  |  | 5 µM | 500 nM | 700 nM | 3.6 µM | > 50 µM | no toxicity | 58.9 µM | 11.2 µM | much less effect; also recorded: much less effective | 3–15 fold | 5 fold and 5- to 10 fold | 12.8 ± 1.7 µM | much less effect; also recorded: much less effective | 10 fold and 5- to 10 fold | 91.7 µM

Source: paper PMC3480348, “Structure and Activity Analysis of Inauhzin Analogs as Novel Antitumor Compounds That Induce p53 and Inhibit Cell Growth” (PLoS ONE, 2012)
